Laboratory results as given in EP0527889B1, “QUINOLIZINONE TYPE COMPOUNDS” (priority 1990, dated 1991).
≈ marks a conversion by molar mass, not a printed value.

Columns and labels:
Experiment in all cases: In vitro antibacterial activity, MIC by agar dilution
Format in all cases: cell-based
Conditions in all cases: BHI agar, 35-37°C, 20-24 hours, unit assumed
[1] = test system: Escherichia coli DC-2
Experimental: (§1) Each plate was inoculated with 1:100 (or 1:10 for slow growing strains, primarily Micrococcus and Streptococcus) dilutions of up to 32 different microorganisms, using a Steers replicator block calibrated to deliver approximately 10^4 colony forming units (CFUs). The inoculated plates were incubated at from about 35°C to about 37°C for approximately 20-24 hours. In addition, a control plate using BHI agar containing no test compound was prepared and incubated at the beginning and at the end of each test. Ciprofloxacin was used as the control antibiotic.
(§2) The MIC was defined as the lowest concentration of test compound yielding no growth (a slight haze or sparsely isolated colonies at the inoculum spot) as compared to the growth control containing no test compound.

[2] = test system: Enterobacter aerogenes ATCC 13048
Experimental: as §1, §2

[3] = test system: Micrococcus luteus ATCC 4698
Experimental: as §1, §2

[4] = test system: Staphylococcus aureus 1775
Experimental: as §1, §2

[5] = test system: Staphylococcus aureus NCTC 10649
Experimental: as §1, §2

[6] = test system: Streptococcus pyrogenes 2548 INDUC
Experimental: as §1, §2

[7] = test system: Providencia stuartii CMX 640
Experimental: as §1, §2

[8] = test system: Staphylococcus aureus A5177
Experimental: as §1, §2

[9] = test system: Staphylococcus aureus 642A
Experimental: as §1, §2

[10] = test system: Pseudomonas aeruginosa 2862
Experimental: as §1, §2

[11] = test system: Pseudomonas cepacia 296I
Experimental: as §1, §2

[12] = test system: Streptococcus pyrogenes CONST
Experimental: as §1, §2

[13] = test system: Klebsiella pneumoniae ATCC 8045
Experimental: as §1, §2

[14] = test system: Pseudomonas aeruginosa 5263
Experimental: as §1, §2

[15] = test system: Escherichia coli SS
Experimental: as §1, §2

[16] = test system: Pseudomonas aeruginosa K799/61
Experimental: as §1, §2

[17] = test system: Staphylococcus aureus ATCC 6538P
Experimental: as §1, §2

[18] = test system: Staphylococcus aureus CMX 553
Experimental: as §1, §2

[19] = test system: Enterococcus faecium ATCC 8043
Experimental: as §1, §2

[20] = test system: Pseudomonas aeruginosa K799/WT
Experimental: as §1, §2

[21] = test system: Pseudomonas aeruginosa A5007
Experimental: as §1, §2

[22] = test system: Escherichia coli JUHL
Experimental: as §1, §2

[23] = test system: Pseudomonas aeruginosa BMH10
Experimental: as §1, §2

[24] = test system: Escherichia coli H560
Experimental: as §1, §2

[25] = test system: Staphylococcus epidermidis 3519
Experimental: as §1, §2

[26] = test system: Escherichia coli KNK 437
Experimental: as §1, §2

[27] = test system: Staphylococcus aureus A-5278
Experimental: as §1, §2

[28] = test system: Streptococcus agalactaciae CMX 508
Experimental: as §1, §2

[29] = test system: Micrococcus luteus ATCC 9341
Experimental: as §1, §2

[30] = test system: Acinetobacter calcoaceticus CMX 669
Experimental: as §1, §2

[31] = test system: Streptococcus bovis A5169
Experimental: as §1, §2

[32] = test system: Streptococcus pyrogenes EES61
Experimental: as §1, §2

SMILES | MIC values [1] [µg/mL] | MIC values [2] [µg/mL] | MIC values [3] [µg/mL] | MIC values [4] [µg/mL] | MIC values [5] [µg/mL] | MIC values [6] [µg/mL] | MIC values [7] [µg/mL] | MIC values [8] [µg/mL] | MIC values [9] [µg/mL] | MIC values [10] [µg/mL] | MIC values [11] [µg/mL] | MIC values [12] [µg/mL] | MIC values [13] [µg/mL] | MIC values [14] [µg/mL] | MIC values [15] [µg/mL] | MIC values [16] [µg/mL] | MIC values [17] [µg/mL] | MIC values [18] [µg/mL] | MIC values [19] [µg/mL] | MIC values [20] [µg/mL] | other results
CC(C)(C)OC(=O)NC1CCN(c2nc3c(-c4ccc(F)cc4F)cc(C(=O)O)c(=O)n3cc2F)C1 (centres unmarked) [Example 160, 2-(3-(N-t-butoxycarbonyl)aminopyrrolidin-1-yl)-9-(2,4-difluorophenyl)-3-fluoro-6H-6-oxopyrido[1,2-a]pyrimidine-7-carboxylic acid] | 25 (≈ 49.6 µM) | 12.5 (≈ 24.8 µM) | 0.78 (≈ 1.55 µM) | 100 (≈ 198 µM) | 0.2 (≈ 0.396 µM) | 0.78 (≈ 1.55 µM) | > 100 | 0.39 (≈ 0.773 µM) | 0.2 (≈ 0.396 µM) | > 100 | > 100 | 1.56 (≈ 3.09 µM) | 1.56 (≈ 3.09 µM) | > 100 | 0.005 (≈ 0.00991 µM) | 3.1 (≈ 6.15 µM) | 0.2 (≈ 0.396 µM) | 0.39 (≈ 0.773 µM) | 3.1 (≈ 6.15 µM) | 12.5 (≈ 24.8 µM) | MIC values [21]: 25 µg/mL (≈ 49.6 µM); MIC values [22]: 0.39 µg/mL (≈ 0.773 µM); MIC values [23]: 12.5 µg/mL (≈ 24.8 µM); MIC values [24]: 3.1 µg/mL (≈ 6.15 µM); MIC values [25]: 0.39 µg/mL (≈ 0.773 µM); MIC values [26]: 25 µg/mL (≈ 49.6 µM); MIC values [27]: 0.2 µg/mL (≈ 0.396 µM); MIC values [28]: 1.56 µg/mL (≈ 3.09 µM); MIC values [29]: 6.2 µg/mL (≈ 12.3 µM); MIC values [30]: 3.1 µg/mL (≈ 6.15 µM); MIC values [31]: 6.2 µg/mL (≈ 12.3 µM); MIC values [32]: 1.56 µg/mL (≈ 3.09 µM)
NC1CCN(c2nc3c(-c4ccc(F)cc4F)cc(C(=O)O)c(=O)n3cc2F)C1 (centres unmarked) [Example 161, 2-(3-Aminopyrrolidin-1-yl)-9-(2,4-difluorophenyl)-3-fluoro-6H-6-oxopyrido[1,2-a]pyrimidine-7-carboxylic acid] | 0.2 (≈ 0.495 µM) | 0.05 (≈ 0.124 µM) | 3.1 (≈ 7.67 µM) | 100 (≈ 247 µM) | 0.05 (≈ 0.124 µM) | 0.1 (≈ 0.247 µM) | 1.56 (≈ 3.86 µM) | 0.1 (≈ 0.247 µM) | 0.1 (≈ 0.247 µM) | 100 (≈ 247 µM) | 3.1 (≈ 7.67 µM) | 0.39 (≈ 0.965 µM) | 0.01 (≈ 0.0247 µM) | 100 (≈ 247 µM) | 0.005 (≈ 0.0124 µM) | 0.05 (≈ 0.124 µM) | 0.05 (≈ 0.124 µM) | 0.1 (≈ 0.247 µM) | 0.78 (≈ 1.93 µM) | 0.2 (≈ 0.495 µM) | MIC values [21]: 0.2 µg/mL (≈ 0.495 µM); MIC values [22]: 0.02 µg/mL (≈ 0.0495 µM); MIC values [23]: 0.2 µg/mL (≈ 0.495 µM); MIC values [24]: 0.02 µg/mL (≈ 0.0495 µM); MIC values [25]: 0.1 µg/mL (≈ 0.247 µM); MIC values [26]: 0.2 µg/mL (≈ 0.495 µM); MIC values [27]: 0.1 µg/mL (≈ 0.247 µM); MIC values [28]: 0.39 µg/mL (≈ 0.965 µM); MIC values [29]: 3.1 µg/mL (≈ 7.67 µM); MIC values [30]: 0.05 µg/mL (≈ 0.124 µM); MIC values [31]: 1.56 µg/mL (≈ 3.86 µM); MIC values [32]: 0.39 µg/mL (≈ 0.965 µM)
O=C(O)c1cc(-c2ccc(F)cc2F)c2nc(N3CCC(O)C3)c(F)cn2c1=O (centres unmarked) [Example 170, 9-(2,4-Difluorophenyl)-3-fluoro-2-(3-hydroxypyrrolidin-1-yl)-6H-6-oxopyrido[1,2-a]pyrimidine-7-carboxylic acid] | 3.1 (≈ 7.65 µM) | 0.39 (≈ 0.962 µM) | 1.56 (≈ 3.85 µM) | 100 (≈ 247 µM) | 0.05 (≈ 0.123 µM) | 0.39 (≈ 0.962 µM) | 6.2 (≈ 15.3 µM) | 0.1 (≈ 0.247 µM) | 0.1 (≈ 0.247 µM) | > 100 | 6.2 (≈ 15.3 µM) | 0.78 (≈ 1.92 µM) | 0.05 (≈ 0.123 µM) | > 100 | 0.001 (≈ 0.00247 µM) | 0.05 (≈ 0.123 µM) | 0.05 (≈ 0.123 µM) | 0.2 (≈ 0.493 µM) | 0.78 (≈ 1.92 µM) | 0.78 (≈ 1.92 µM) | MIC values [21]: 0.78 µg/mL (≈ 1.92 µM); MIC values [23]: 0.78 µg/mL (≈ 1.92 µM); MIC values [24]: 0.1 µg/mL (≈ 0.247 µM); MIC values [25]: 0.2 µg/mL (≈ 0.493 µM); MIC values [26]: 1.56 µg/mL (≈ 3.85 µM); MIC values [27]: 0.1 µg/mL (≈ 0.247 µM); MIC values [28]: 0.78 µg/mL (≈ 1.92 µM); MIC values [29]: 12.5 µg/mL (≈ 30.8 µM); MIC values [30]: 0.2 µg/mL (≈ 0.493 µM); MIC values [31]: 6.2 µg/mL (≈ 15.3 µM); MIC values [32]: 0.78 µg/mL (≈ 1.92 µM)
